One test concerns BCM-4013 PDX tumors. As to conditions: mouse, in vivo; cited from earlier work.
The subject of another test is MDA-MB-231 TNBC cells. In words: Cell proliferation / growth assay. In kind it is cell-based, human.
A further test relates to cancer cells. As to conditions: cited from earlier work.

Structures are written as SMILES.

Consider `CC(=O)O[C@@]12CO[C@@H]1C[C@H](O)[C@@]1(C)C(=O)[C@H](O)C3=C(C)[C@@H](OC(=O)[C@H](O)[C@@H](NC(=O)OC(C)(C)C)c4ccccc4)C[C@@](O)([C@@H](OC(=O)c4ccccc4)[C@H]21)C3(C)C` [docetaxel], for which the “response of the BCM-4013 model to treatment” value with BCM-4013 PDX tumors is “limited response”.
On to `CC(C)(C)c1cc(NC(=O)Nc2ccc(-c3cn4c(n3)sc3cc(OCCN5CCOCC5)ccc34)cc2)no1` [AC220, reference compound], for which, in the test with MDA-MB-231 TNBC cells, the anti-proliferative activity entry is reported as “insensitive”.
In the case of `Nc1nccc(-c2c(-c3ccc(F)cc3)ncn2C2CCCCC2)n1` [PF670462], the anti-cancer activity entry with cancer cells is listed as “lacks anti-cancer activity”.
In the case of `COc1cc(OC)c(C=C2C(O)=Nc3ccccc32)c(OC)c1` [IC261], the mode of action result with cancer cells (not by inhibition of CK1δ/CK1ε) is “blocking tubulin function”.

The record behind these values is patent US10603322B2, “Therapeutic targeting of casein kinase 1δ in breast cancer” (The Scripps Research Institute, priority 2015, dated 2020).
